Measured values reported in US7022315B2, “Administration of a thiol-based chemoprotectant compound” (Oregon Health & Science University, priority 2000, dated 2006).
In brackets after ≈: the same amount, converted by molar mass. Like-named read-outs stand apart in the source and are kept apart here. Marks after values point to notes of the source that are not given here.

Assays:
[1] = system: cultured tumor cells; assay: Paclitaxel cytotoxicity with BSO and NAC (WST); type: cell-based
[2] = system: LX-1 SCLC cells; assay: cells; settings: for EC50: average ± pooled sd of two experiments
Method: Cytotoxicity was assessed in cultured LX-1 SCLC cells, 1×10^4 cells per well in 96 well plates, using the WST colorometric assay. […] Chemoprotectant was added at the indicated concentration of N-acetylcysteine shown in FIG. 3A or D-methionine shown in FIG. 3B either alone (n) or immediately following chemotherapy. Data are expressed as the percentage of live cells compared to untreated control samples (without chemotherapy) and each point represents the mean±standard deviation of 4 wells.
The dose/response for rescue from chemotherapy cytotoxicity was evaluated for four different small molecular weight sulfur containing chemoprotectants.
Chemotherapy agents were fixed at the 90% lethal dose for each agent. Each EC50 measurement comprised 6 concentrations with 4 wells per concentration, and each dose response was performed twice for each protectant. EC50 concentrations, in μg/ml are reported as the average±pooled standard deviation for two independent experiments.

[3] = system: B.5 LX-1 cells; assay: cells
Method: FIGS. 4A and 4B show cytoenhancement and chemoprotection. […] Cytotoxicity was assessed in cultured LX-1 SCLC cells, 1×10^4 cells per well in 96 well plates, using the WST colorometric assay. BSO cytoenhancement consisted of preincubation at 100 μM BSO for 18 hours. The chemoprotective agent was added immediately after chemotherapy. The experimental conditions were dose/responses for chemotherapy (carboplatin or etoposide phosphate) alone (m), BSO cytoenhancement ( ? ), N-acetylcysteine rescue, (1000 μg/ml N-acetylcysteine, n), or BSO cytoenhancement and N-acetylcysteine rescue (u). Data are expressed as the percentage of live cells compared to untreated control samples without chemotherapy and each point represents the mean±standard deviation of 4 wells.
The effects of BSO cytoenhancement and thiol chemoprotection on the dose/response relationships for cytotoxicity of the alkylating chemotherapeutics were evaluated in the B.5 LX-1 cells. BSO cytoenhancement consisted of preincubation with 100 μM BSO for about 18–24 hours prior to addition of chemotherapy, and rescue consisted of 1000–2000 μg/ml of thiol chemoprotectant added immediately after chemotherapy.
Cytoenhancement and chemoprotection against non-alkylating chemotherapeutic agents was also evaluated.
Half-maximal cytotoxic concentrations (EC50) are expressed as μg/ml. Each EC50 measurement comprised 6 concentrations with 4 wells per concentration, and each dose response was performed in triplicate for each chemotherapeutic agent. Data are reported as the mean±pooled standard deviation for three independent experiments. P values are shown for the reduction in EC50 by BSO treatment (*=P<0.05, **=P<0.01, ***=P<0.001).

[4] = system: GM294 human fibroblasts; assay: Cytoenhancement and chemoprotection in fibroblasts, WST assay; type: cell-based; settings: independent of BSO treatment; 1000 μg/ml
Method: Cytotoxicity was assessed in GM294 human fibroblasts, 1×10^4 cells per well in 96 well plates, using the WST colorometric assay. […] Data are expressed as the percentage of live cells compared to control samples (without chemotherapy) and each point represents the mean±s.d. of 4 wells.

[5] = system: Caspase-2 activity in B.5 LX-1 cells; assay: Caspase-2 enzymatic activity (apoptosis); type: cell-based
Method: (§1) FIGS. 7A and 7B show the effect of cytoenhancement and chemoprotection on apoptosis. […] Apoptosis was assessed in cultured LX-1 SCLC cells pretreated for 18 hours with or without 100 μM BSO. The experimental conditions were no addition (open bars), melphalan (10 μg/ml, striped bars) or melphalan (10 μg/ml) plus N-acetylcysteine (1000 μg/ml) (cross hatched bars) for 20 h prior to harvest. Caspase-2 activity is expressed as percentage activity in untreated control samples (mean±standard deviation, n=3). TUNEL staining is expressed as the percentage of cells showing positive staining.
(§2) Apoptosis was evaluated by measuring Caspase-2 enzymatic activity and by in situ TUNEL staining. […] The increase in caspase activity was variable between experiments and ranged from 50–100% at 7–8 h to 250–600% at 20–24 h after treatment with melphalan. […] In the experiment shown in FIG. 7B, TUNEL staining after melphalan treatment was positive in 29 of 3643 cells, compared to 7 of 4395 cells in the untreated control, and BSO treatment prior to melphalan increased the positive staining to 800 of 1699 cells. […] In both assays, activity was maximal with low doses of melphalan, or with a 1 hour pulse treatment with the doses used in the cytotoxicity assays.
Samples of the cells used in the caspase and TUNEL assays were also evaluated for membrane permeability by trypan blue exclusion.

[6] = system: B.5 LX-1 cells; assay: In situ TUNEL staining for DNA fragmentation; type: cell-based; settings: melphalan 10 μg/ml, N-acetylcysteine 1000 μg/ml
Method: as §1, §2

[7] = system: rats; assay: Protection against chemotherapy-induced myelosuppression, nadir blood counts; type: in vivo, rat; settings: for White Cell Nadir: mean ± SE
Method: FIGS. 10A–10D show the results of tests on chemoprotection for chemotherapy-induced myelosuppression. Rats received tri-drug chemotherapy (Carboplatin 200 mg/m2, etoposide phosphate 100 mg/m2, melphalan 10 mg/m2), with (triangles, squares) or without (circles) chemoprotection. Blood counts were determined prior to chemotherapy, at the blood nadir (6 days), and in the recovery phase (9 days after treatment). Chemoprotection was with NAC (1200 mg/kg) administered via aortic infusion 30 min prior to chemotherapy (triangles) or NAC prior to chemotherapy and STS (8 g/m2) immediately after chemotherapy (squares). In FIG. 10B and FIG. 10D animals received BSO (10 mg/kg i.p.×3 d) prior to treatment with chemotherapy. […] Significant difference from the no protectant groups were determined by Wilcoxon/Kruskal-Walliis rank sums tests (*p<0.05, **p<0.01).
Chemoprotection against chemotherapy-induced bone marrow toxicity was determined in BSO treated and untreated animals given i.a. carboplatin, etoposide phosphate, and melphalan. NAC with or without STS was administered either about 30 minutes prior to chemotherapy or immediately after chemotherapy, and was administered either i.v. or by aortic infusion.

[8] = administered intravenously; cited from earlier work
[9] = system: patients with moderate renal insufficiency; settings: approximately 1200 mg per day orally, day before and day of contrast agent; computed tomography; cited from earlier work
[10] = Table 7, no BSO, aortic infusion post chemo
[11] = Table 7, no BSO, i.v. 30 min prior
[12] = Table 7, no BSO, i.v. post chemo
[13] = Table 8, BSO pretreatment, aortic infusion post chemo

CC(=O)N[C@@H](CS)C(=O)O [NAC, N-acetylcysteine]
effect on BSO-enhanced paclitaxel toxicity [1]: completely reversed the enhanced toxicity | effect on the dose response for paclitaxel alone [1]: did not change the dose response | reduction of the cytotoxicity of each alkylator [2]: 75–90% | relative effectiveness among the thiol agents tested ([2]; on a μg/ml basis): most effective | EC50 ([2]; read-out: Chemoprotective agent EC50, protection against carboplatin 200 μg/ml (about 90% lethal dose)): 200 ± 15 µg/mL (≈ 1230 µM) | EC50 ([2]; read-out: Chemoprotective agent EC50, protection against cisplatin 15 μg/ml (about 90% lethal dose)): 151 ± 15 µg/mL (≈ 925 µM) | EC50 ([2]; read-out: Chemoprotective agent EC50, protection against melphalan 20 μg/ml (about 90% lethal dose)): 74 ± 18 µg/mL (≈ 453 µM) | effect on BSO-enhanced taxol cytotoxicity [3]: completely reversed | chemoprotection against melphalan, cisplatin and carboplatin cytotoxicity [4]: partially to completely chemoprotective | effect on cisplatin- or carboplatin-induced caspase activity [5]: no reduction in caspase enzymatic activity could be detected | effect on melphalan-induced Caspase-2 activity ([5]; melphalan 10 μg/ml, N-acetylcysteine 1000 μg/ml): reduced | effect on melphalan-induced TUNEL staining [6]: reduced | White Cell Nadir ([7]; Table 7, no BSO, aortic infusion 30 min prior (1200 mg/kg), N=6): 69.7 ± 19.3% of baseline | Granulocyte Nadir [7, 10]: 36.6 ± 17.0% of baseline | Platelet Nadir [7, 10]: 26.8 ± 9.3% of baseline | White Cell Nadir ([7]; Table 7, no BSO, aortic infusion post chemo, N=6): 25.9 ± 4.9% of baseline | Granulocyte Nadir [7, 11]: 93.5 ± 28.1% of baseline | Platelet Nadir [7, 11]: 53.3 ± 12.7% of baseline | White Cell Nadir ([7]; Table 7, no BSO, i.v. 30 min prior, N=8): 51.4 ± 9.4% of baseline | Granulocyte Nadir [7, 12]: 57.9 ± 8.8* percent of baseline | Platelet Nadir [7, 12]: 36.8 ± 10.4% of baseline | White Cell Nadir ([7]; Table 7, no BSO, i.v. post chemo, N=6): 46.0 ± 6.5* percent of baseline | Platelet Nadir ([7]; Table 8, BSO pretreatment, aortic infusion 30 min prior): 23.1 ± 6.2% of baseline | White Cell Nadir ([7]; Table 8, BSO pretreatment, aortic infusion 30 min prior, N=9): 20.1 ± 2.7% of baseline | Granulocyte Nadir [7, 13]: 19.8 ± 14.7% of baseline | Platelet Nadir [7, 13]: 11.7 ± 3.5% of baseline | White Cell Nadir ([7]; Table 8, BSO pretreatment, aortic infusion post chemo, N=7): 13.9 ± 4.2% of baseline | brain levels [8]: < 5% | effect on renal function after radiographic contrast agent [9]: prevented the expected decline in renal function
